This data set can be described thus: Initial stability tests of synthetic/purified 9CBC. The data set is classed as physicochemical.

SMILES strings stand for the structures.

Consider `CC1=C(/C=C/C(C)=C\C=C\C(C)=C\C=C\C=C(C)\C=C\C=C(C)\C=C\C2=C(C)CCCC2(C)C)C(C)(C)CCC1` [9CBC, 9-cis-β-carotene], for which the “Time to full decomposition” value (sensitive to oxygen and UV degradation) was “less than 24 hours”. The “Stability of purified 9CBC” value (under vacuum or nitrogen flushing) is listed as “unstable”.
